Measurements published in patent US8242146B2, “Combination of a NSAID and a PDE-4 inhibitor” (Nycomed GmbH, priority 2002, dated 2012).

What was measured:
[1] = molecular target: partially purified or recombinant PDE4; test: Inhibition of phosphodiesterase 4 in vitro; format: biochemical
[2] = system: isolated guinea pig Langendorff hearts; test: Isolated guinea pig Langendorff heart
[3] = molecular target: partially purified or recombinant PDE5 (Homo sapiens, UniProt O76074); test: Inhibition of phosphodiesterase 5 in vitro; format: biochemical
[4] = Diclofenac induced blood loss in mice (fecal hemoglobin); format: in vivo; conditions: male, NMRI, mouse, feces, oral; mice, 3-100 mg/kg p.o., spectrophotometric determination of fecal hemoglobin; read-out: ED50 of induced gastrointestinal bleeding
Protocol: (§1) Male NMRI mice (Charles River Laboratories, Sulzfeld, Germany) weighting 23-25 g were housed in groups of 5 under standard conditions at a temperature of 22° C.+/−2° C. and a 12 h light-dark cycle. If not otherwise stated animals had free access to tap water and standard food pellets. Diclofenac was administrated at doses from 1-100 mg/kg p.o.; rolipram, roflumliast and RP73401 were given at doses from 1-100 mg/kg p.o. Preventive treatment: Diclofenac was given at time point 0 h. At time points −24, −16, 0 h, +7 h one of the selective PDE4 inhibitors was administered. Curative treatment: Diclofenac was given at time point 0 h. At time points +1 h and +7 h one of the selective PDE4 inhibitors was administered. The drugs used were dissolved in 4% aqueous methyl cellulose. The animals were food reduced 24 h prior diclofenac administration. For each experiment 5 animals were used for one experimental point. Following 24 h administration of drugs animals were weighted and stool was collected quantitatively and homogenized as described below:
(§2) The modified method of Welch (Clin. Chem. 29/12, 2022-2025, 1983) was used. The amount of hemoglobin was determined by the heme catalyzed oxidation of tolidine in the presence of hydrogen peroxide. Feces was homogenized in destined water in a concentration with 1 g feces/6.6 ml H20 with an ultra-turrax (IKA-Werke, Germany). 500 μl aliquots from two different areas of the stool were taken to minimize error due to inhomogenous distribution of blood in the feces and heated 10 min at 95° C. to inactivate peroxidases and than diluted with 500 μl of acetic acid/H20 (30/70 vol/vol). Hemoglobin was extracted in 2.5 ml of acetic acid/H20 (30/70 vol/vol) by the addition of 4.5 ml ethyl acetate. The sample was rigorously shacked and the supernatant was used following a centrifugation step for optical detection of hemoglobin. Tolidine was prepared freshly from a stock solution (0.4 g tolidine in 10 ml ethanol) by mixing equal volumes of stock solution, H20 and acetic acid and equilibrated at room temperature. 20 μl of extracted supernatant was diluted to 100 μl ethyl acetate in a 96er crystal plate and incubated with 50 μl of the working solution. The reaction was initiated by the injection of 25 μl hydrogen peroxide (6%) in a Wallac Victor spectro-photometer (Turku, Finnland). The increase of OD 690 was monitored by a kinetic analysis and expressed as ΔOD690/min.

Male NMRI mice [5] = test: Indomethacin induced blood loss in mice (fecal hemoglobin); format: in vivo; conditions: NSAID 30 mg/kg indomethacin; PDE4 inhibitor 100 mg/kg p.o., curative
Protocol: as §1, with “Diclofenac was administrated at doses from 1-100 mg/kg p.o.; rolipram, roflumliast and RP73401 were given at doses from 1-100 mg/kg p.o. Preventive treatment: Diclofenac was given at time point 0 h.” left out, “Curative treatment: Diclofenac was given at time point 0 h.” left out
The modified method of Welch (Clin. Chem. 29/12, 2022-2025, 1983) was used. The amount of hemoglobin was determined by the heme catalyzed oxidation of tolidine in the presence of hydrogen peroxide. Feces was homogenized in destined water in a concentration with 1 g feces/6.6 ml H20 with an ultra-turrax (IKA-Werke, Germany). […] The increase of OD 690 was monitored by a kinetic analysis and expressed as ΔOD690/min.

Male NMRI mice [6] = test: Diclofenac induced blood loss in mice (fecal hemoglobin); format: in vivo; conditions: for % reduction of ΔOD690/min: NSAID 100 mg/kg diclofenac
Protocol: as §1, §2

IC50 [1] [µM]	PDE4 activity (in words) [1]	PDE5 activity (in words) [3]	IC50 PDE5 [3] [µM]	SMILES	other results
~100	only minor effects	only minor effects	62	COc1ccc2c(c1)c(CC(=O)O)c(C)n2C(=O)c1ccc(Cl)cc1 [Indometacin, 1-(4-chlorobenzoyl)-5-methoxy-2-methyl-1H-indole-3-acetic acid]	
> 100	only minor effects	only minor effects	>100	O=C(O)Cc1ccccc1Nc1c(Cl)cccc1Cl [Diclofenac, 2-[(2,6-dichlorophenyl)amino]benzeneacetic acid]	ED50 at 24 h [4]: 56 mg/kg
31	in the μM range	in the μM range	24	CS(=O)(=O)Nc1cc2c(cc1Sc1ccc(F)cc1F)C(=O)CC2 [L-745337, 5-methanesulfonamido-6-(2,4-difluorophenylthio)-1-indanone]	
58	in the μM range	in the μM range	25	CS(=O)(=O)Nc1ccc([N+](=O)[O-])cc1Oc1ccccc1 [Nimesulide, 4′-nitro-2′-phenoxymethansulfonamide]	
				COc1ccc(C(=O)Nc2c(Cl)cncc2Cl)cc1OC1CCCC1 [RP73401]	% reduction of ΔOD690/min (Male NMRI mice [5]): 96%
				CCCc1nn(C)c2c(=O)[nH]c(-c3cc(S(=O)(=O)N4CCN(C)CC4)ccc3OCC)nc12 [sildenafil]	protection from NSAID-induced blood loss (Male NMRI mice [6]; diclofenac 10-100 mg/kg p.o. t=0 h, sildenafil 3-100 mg/kg p.o. t=-48 h to +7 h): no protection
				COc1ccc(C2CNC(=O)C2)cc1OC1CCCC1 (centres unmarked) [Rolipram]	% reduction of ΔOD690/min (Male NMRI mice [6]; PDE4 inhibitor 10 mg/kg p.o., curative): 82%; % reduction of ΔOD690/min (Male NMRI mice [6]; PDE4 inhibitor 30 mg/kg p.o., preventive): 90%; % reduction of ΔOD690/min (Male NMRI mice [5]): 65%
23	in the μM range	in the μM range	14	CS(=O)(=O)Nc1cc2c(cc1Oc1ccc(F)cc1F)C(=O)CC2 [CGP28238, 6-(2,4-difluorophenoxy)-5-methylsulfonylamino-1-indanone]	
				O=C(Nc1c(Cl)cncc1Cl)c1ccc(OC(F)F)c(OCC2CC2)c1 [Roflumilast, 3-Cyclopropylmethoxy-4-difluoromethoxy-N-(3,5-dichloropyrid-4-yl)-benzamide]	% reduction of ΔOD690/min (Male NMRI mice [6]; PDE4 inhibitor 3 mg/kg p.o., curative): 95%; % reduction of ΔOD690/min (Male NMRI mice [6]; PDE4 inhibitor 10 mg/kg p.o., preventive): 95%

SMILES	IC50 [1] [µM]	PDE4 activity (in words) [1]	PDE5 activity (in words) [3]	IC50 PDE5 [3] [µM]	other results
Cc1ccc(-c2cc(C(F)(F)F)nn2-c2ccc(S(N)(=O)=O)cc2)cc1 [Celecoxib, 4-[5-(4-methylphenyl)-3-(tri-fluoromethyl)-1H-pyrazol-1-yl]benzenesulfonamide]	6	in the μM range	in the μM range		heart rate [2]: no effect; left ventricular pressure [2]: no effect; coronary heart flow ([2]; doses consistent with inhibitory potency on PDE4 and 5): selectively increased
CC(=O)Oc1ccccc1C(=O)O [ASS, 2-(acetyloxy)benzoic acid]	> 100	only minor effects	only minor effects	>100	
